Assay results from patent publication US20200023031A1, “COMPOSITION FOR ANTI-PANCREATIC CANCER AND ANTI-PANCREATIC ADJUVANT COMPRISING ALLOFERON” (AT-Pharma Co., Ltd., priority 2018, published 2020).

Assays:
[1] = test system: Panc-1 cells; test: Panc-1 xenograft model in Balb/C (nu/nu) mice; type: in vivo
Method: (§1) The anti-tumor effect of concomitant alloferon and gemcitabine treatment was also assessed by using xenograft animal model.
(§2) Tumor burdens from each experimental animals were excised and compared its volumes (FIG. 8).

[2] = test system: AsPC-1 cells; test: Mitochondrial membrane potential assay, DiOC6(3) staining; type: cell-based; details: 0.5 mg/ml alloferon for week, 250 nM gemcitabine 36 hours
Method: The effect of adjuvant treatment of alloferon and gemcitabine on mitochondrial function was also studied. AsPC-1 cells were cultured for week in the presence or absence of 0.5 mg/ml of alloferon. Then 5×10^5 cells were cultured with 250 nM of gemcitabine for 36 hours. The synergistic effect of alloferon with gemcitabine on the decrease of mitochondrial membrane potential, a general phenomenon associated with cell death by chemotherapeutic drugs, was investigated by staining with DiOC6(3), a green-fluorescent, lipophilic dye (ThermoFisher Scientific). Cells were collected and washed three times with PBS. Then 1×10^6 cells were resuspended in 1 ml freshly prepared 4% paraformaldehyde diluted from stock using PBS for 10 minutes at room temperature and then washed with 1 ml pre-warmed (37° C.) PBS three times. The DiOC6 stock solution was diluted into PBS to make 0.1 μM working solution. The cells were suspended at a density of 1×10^6 cells/ml in dye working solution and protected from light. The cells were incubated at 37° C. for 15 minutes. The cell suspensions were centrifuged at 130×g for 5 minutes. The supernatant was removed and the cells were gently resuspended in 1 ml pre-warmed PBS. The cells were analyzed with LSRII flow cytometer (BD Biosciences) with excitation at 488 nm and emission at 525 nm.

[3] = test system: AsPC-1 cells; test: AsPC-1 xenograft model in Balb/C (nu/nu) mice; type: in vivo
Method: as §1, §2

[4] = test system: AsPC-1 pancreatic ductal adenocarcinoma cell line; test: Annexin V apoptosis assay, AsPC-1; type: cell-based
Method: (§3) AsPC-1 (FIG. 4(a)) and Panc-1 (FIG. 4(b)), two pancreatic ductal adenocarcinoma cell line, were cultured for week in the presence or absence of […] of alloferon, and then 5×10^5 cells were cultured with 250 nM of gemcitabine for 36 hrs. To investigate whether alloferon increases the sensitivity of these cell lines against gemcitabine, the degree of cell death was examined by an Annexin V-7AAD assay. Cells were collected and washed three times with cold phosphate-buffered saline (PBS) and then resuspended in 1× Annexin V binding buffer at a concentration of 1×10^6 cells/ml (BD Biosciences). Transfer 100 μl of the solution (1×10^5 cells) to a 5 ml culture tube. Add 5 μl of FITC-conjugated Annexin V and incubated for 15 min at room temperature in the dark. Add 400 μl of 1× Annexin V binding buffer to each tube. After 1 μl of propidium iodide (PI) was added just prior to analyze by flow cytometry. Apoptotic cells were analyzed with LSRII flow cytometer (BD Biosciences) with excitation at 488 nm and emission at 525 nm.

[5] = test system: Panc-1 pancreatic ductal adenocarcinoma cell line; test: Annexin V apoptosis assay, Panc-1; type: cell-based
Method: as §3

[6] = subcutaneous, female Balb/C (nu/nu), calipers every 3-4 days
[7] = gemcitabine 250 nM for 36 hrs, alloferon 0.5 μg/ml for a week

## Nc1ccn([C@@H]2O[C@H](CO)[C@@H](O)C2(F)F)c(=O)n1 [gemcitabine]
[1]; [6]
  tumor growth (tumor volume), Panc-1 xenograft: does not effectively suppress growth
[1]; tumor burdens excised, FIG. 8
  excised tumor burden volume, Panc-1 xenograft: does not effectively suppress growth
[2]
  mitochondrial membrane potential / mitochondrial dysfunction: does not induce mitochondrial dysfunction
[3]; [6]
  tumor growth (tumor volume), AsPC-1 xenograft: does not effectively suppress growth
[3]; tumor burdens excised, FIG. 8
  excised tumor burden volume, AsPC-1 xenograft: does not effectively suppress growth
[4]; gemcitabine 250 nM
  cytotoxic effects, ASPC-1: do not have cytotoxic effects
[4]; [7]
  apoptosis, AsPC-1: do not induce apoptosis
[5]; gemcitabine 250 nM
  cytotoxic effects, PANC-1: do not have cytotoxic effects
[5]; [7]
  apoptosis, Panc-1: do not induce apoptosis
